Measurements taken from patent US9982231B2, “Methods for reprogramming differentiated non-cardiac cells into cardiomyocytes” (The J. David Gladstone Institutes, a testamentary trust …, priority 2013, dated 2018).

Legend:
[1] = target: PDGF receptor tyrosine kinase; conditions: PDGFR kinase / PDGF receptor tyrosine kinase; cited from earlier work
[2] = target: epidermal growth factor receptor (EGFR) (Homo sapiens, UniProt P00533); conditions: EGFR / EGF receptor kinase; cited from earlier work
[3] = tested on: contracting cardiomyocytes derived from human fibroblast cells; assay: Responses of reprogrammed cardiomyocytes to β-adrenergic and muscarinic stimulation; format: cell-based; conditions: cardiomyocytes reprogrammed from CRL-2097
Protocol: Naïve human fibroblast CRL-2097 cells were treated with cardiac reprogramming medium for 6 days followed by treatment with cardiac induction medium 1 for 5 days and then cardiac induction medium 2 for 21-26 days.
Representative beating frequencies of the reprogrammed cells are shown in FIG. 7A before (i) or after β-adrenergic stimulation by its agonist (ii, isoproterenol), or a muscarinic agonist (iii. Carbachol; CCh).

SAPK2/p38 = SAPK2/p38 (Homo sapiens, UniProt Q16539); conditions: CK1 and ALK5 inhibitor vs SAPK2/p38; cited from earlier work
[4] = target: platelet-derived growth factor receptor β (PDGFRβ) (Homo sapiens, UniProt P09619); conditions: cited from earlier work
[5] = tested on: human foreskin fibroblast cells; assay: Reprogramming with PBIT as a substitute for AS8351; format: cell-based
Protocol: FIG. 8A graphically illustrates the knockdown efficiency of the indicated shRNAs in human foreskin fibroblast cells detected by qPCR (n=2). Expression values for each gene were normalized to those measured in control shRNA group. […] Data were collected on day 30. […] Data were collected on day 30. […] FIG. 8E illustrates immunofluorescence staining of cardiomyocyte markers on contracting clusters at day 30 after inducing reprogramming where AS8351 was replaced with 10 μM PBIT. Scale bars, 100 μm. […] Em, membrane potential. Dotted lines indicate 0 mV. F/F0, fluorescence relative to the baseline.
This conclusion was further confirmed by using a KDM5B inhibitor, PBIT (Sayegh et al., 2013) (FIGS. 8C and 8D).
KDM5B catalyzes the demethylation of tri-, di-, and mono-methylation states of H3K4 and facilitates heterochromatin formation (Mosammaparast and Shi, 2010). The inventors have observed that one effect of the reprogramming compositions described herein is on re-opening closed chromatin structures.

[6] = tested on: human adult dermal fibroblasts (HADFs); assay: Conversion of human adult dermal fibroblasts into chemically induced cardiomyocytes; format: cell-based
Source text: 9C is the reprogramming conditions; CCM. CM-conditioned medium; D, day. […] FIG. 9C graphically illustrates test protocols for ascertaining optimal treatment durations for a combination of sodium butyrate and SMER28 (NS) (n=3). The duration shown on the x-axis of the left graph is days (e.g., D0=day zero; D-14=day 14 of treatment). […] Scale bars, 100 μm.

RasGAP = target: T1, RasGAP (Homo sapiens, UniProt P20936); conditions: cited from earlier work
T1 sequence (P20936 1-1047): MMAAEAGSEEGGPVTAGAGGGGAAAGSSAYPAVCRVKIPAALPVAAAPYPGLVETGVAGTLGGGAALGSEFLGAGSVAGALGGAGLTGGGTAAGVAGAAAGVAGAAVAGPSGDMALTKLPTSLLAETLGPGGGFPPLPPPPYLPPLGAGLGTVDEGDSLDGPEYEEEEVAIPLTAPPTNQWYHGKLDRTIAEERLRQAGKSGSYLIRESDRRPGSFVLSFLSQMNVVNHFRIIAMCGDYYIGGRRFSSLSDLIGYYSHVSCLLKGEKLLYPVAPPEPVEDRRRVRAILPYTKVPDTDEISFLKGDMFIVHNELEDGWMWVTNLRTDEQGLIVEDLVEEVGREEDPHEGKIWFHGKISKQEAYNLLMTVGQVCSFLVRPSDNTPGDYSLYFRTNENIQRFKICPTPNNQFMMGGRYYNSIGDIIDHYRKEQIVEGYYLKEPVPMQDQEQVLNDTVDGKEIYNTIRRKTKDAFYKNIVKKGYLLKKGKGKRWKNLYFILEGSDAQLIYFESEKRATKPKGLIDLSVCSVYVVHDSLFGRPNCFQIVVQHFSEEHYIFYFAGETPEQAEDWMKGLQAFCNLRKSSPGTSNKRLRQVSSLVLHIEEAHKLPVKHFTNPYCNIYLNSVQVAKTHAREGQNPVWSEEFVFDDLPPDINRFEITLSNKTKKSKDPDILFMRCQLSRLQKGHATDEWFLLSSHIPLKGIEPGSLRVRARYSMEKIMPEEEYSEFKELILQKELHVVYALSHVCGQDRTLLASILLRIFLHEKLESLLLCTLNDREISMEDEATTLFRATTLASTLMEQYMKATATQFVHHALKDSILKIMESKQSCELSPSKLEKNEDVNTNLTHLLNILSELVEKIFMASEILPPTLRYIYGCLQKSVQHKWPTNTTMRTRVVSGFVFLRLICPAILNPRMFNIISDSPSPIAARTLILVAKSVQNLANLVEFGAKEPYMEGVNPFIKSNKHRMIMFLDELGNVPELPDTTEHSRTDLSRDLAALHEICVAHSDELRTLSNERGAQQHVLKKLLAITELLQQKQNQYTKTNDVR

ERK1 = ERK1 (Homo sapiens, UniProt P27361); conditions: cited from earlier work
[7] = 7-day pretreatment before reprogramming

Chain of SAPK2/p38 (Q16539 whole entry): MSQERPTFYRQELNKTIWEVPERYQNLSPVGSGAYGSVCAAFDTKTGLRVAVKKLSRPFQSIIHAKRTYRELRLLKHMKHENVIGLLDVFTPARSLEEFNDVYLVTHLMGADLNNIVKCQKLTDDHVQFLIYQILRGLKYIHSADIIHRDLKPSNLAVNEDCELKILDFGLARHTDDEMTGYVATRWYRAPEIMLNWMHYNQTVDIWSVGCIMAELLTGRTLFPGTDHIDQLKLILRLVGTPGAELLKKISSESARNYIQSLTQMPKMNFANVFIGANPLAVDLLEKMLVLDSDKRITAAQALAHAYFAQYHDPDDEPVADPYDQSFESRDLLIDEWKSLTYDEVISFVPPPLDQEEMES
Chain of epidermal growth factor receptor (EGFR) (P00533 25-1210, species assumed): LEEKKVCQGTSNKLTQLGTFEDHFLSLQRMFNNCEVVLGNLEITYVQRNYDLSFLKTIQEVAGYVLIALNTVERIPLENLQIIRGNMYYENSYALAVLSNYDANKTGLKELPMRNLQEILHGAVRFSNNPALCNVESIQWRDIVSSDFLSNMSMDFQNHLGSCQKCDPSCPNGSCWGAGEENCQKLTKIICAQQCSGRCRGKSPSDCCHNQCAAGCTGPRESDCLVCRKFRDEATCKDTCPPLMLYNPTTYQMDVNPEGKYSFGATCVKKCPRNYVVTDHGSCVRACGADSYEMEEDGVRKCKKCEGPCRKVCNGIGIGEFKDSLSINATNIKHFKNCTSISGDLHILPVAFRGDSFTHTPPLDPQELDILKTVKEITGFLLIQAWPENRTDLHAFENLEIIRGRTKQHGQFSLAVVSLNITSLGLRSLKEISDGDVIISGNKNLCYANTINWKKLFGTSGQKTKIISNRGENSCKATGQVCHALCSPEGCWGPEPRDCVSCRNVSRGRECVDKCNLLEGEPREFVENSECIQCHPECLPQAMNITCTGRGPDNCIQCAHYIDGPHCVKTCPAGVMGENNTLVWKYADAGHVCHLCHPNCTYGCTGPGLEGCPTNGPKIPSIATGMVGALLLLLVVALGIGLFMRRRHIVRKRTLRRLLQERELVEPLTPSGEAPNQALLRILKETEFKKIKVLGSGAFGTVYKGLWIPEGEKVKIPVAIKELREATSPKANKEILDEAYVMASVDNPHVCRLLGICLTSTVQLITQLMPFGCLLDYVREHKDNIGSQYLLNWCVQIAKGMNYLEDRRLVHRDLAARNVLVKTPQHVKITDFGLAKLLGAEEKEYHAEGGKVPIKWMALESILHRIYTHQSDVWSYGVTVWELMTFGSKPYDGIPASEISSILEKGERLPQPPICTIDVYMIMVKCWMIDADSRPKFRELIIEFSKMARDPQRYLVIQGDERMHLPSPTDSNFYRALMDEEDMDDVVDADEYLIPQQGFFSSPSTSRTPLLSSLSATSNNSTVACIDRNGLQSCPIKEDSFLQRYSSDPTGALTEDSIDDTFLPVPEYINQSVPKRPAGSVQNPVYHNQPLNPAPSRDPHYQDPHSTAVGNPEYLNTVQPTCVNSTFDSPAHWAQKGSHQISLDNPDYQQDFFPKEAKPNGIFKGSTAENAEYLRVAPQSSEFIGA
Chain of ERK1 (P27361 whole entry, species assumed): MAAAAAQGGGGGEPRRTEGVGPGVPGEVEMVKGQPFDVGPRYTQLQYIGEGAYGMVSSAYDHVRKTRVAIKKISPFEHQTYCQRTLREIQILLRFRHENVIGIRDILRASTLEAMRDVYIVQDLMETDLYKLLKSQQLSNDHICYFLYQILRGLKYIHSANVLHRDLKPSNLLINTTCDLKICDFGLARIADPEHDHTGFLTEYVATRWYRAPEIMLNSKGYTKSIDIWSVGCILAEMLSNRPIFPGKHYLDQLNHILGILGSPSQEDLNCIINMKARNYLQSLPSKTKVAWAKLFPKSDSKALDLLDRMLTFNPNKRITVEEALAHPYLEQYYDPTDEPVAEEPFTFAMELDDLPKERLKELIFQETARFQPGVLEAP
Chain of platelet-derived growth factor receptor β (PDGFRβ) (P09619 33-1106): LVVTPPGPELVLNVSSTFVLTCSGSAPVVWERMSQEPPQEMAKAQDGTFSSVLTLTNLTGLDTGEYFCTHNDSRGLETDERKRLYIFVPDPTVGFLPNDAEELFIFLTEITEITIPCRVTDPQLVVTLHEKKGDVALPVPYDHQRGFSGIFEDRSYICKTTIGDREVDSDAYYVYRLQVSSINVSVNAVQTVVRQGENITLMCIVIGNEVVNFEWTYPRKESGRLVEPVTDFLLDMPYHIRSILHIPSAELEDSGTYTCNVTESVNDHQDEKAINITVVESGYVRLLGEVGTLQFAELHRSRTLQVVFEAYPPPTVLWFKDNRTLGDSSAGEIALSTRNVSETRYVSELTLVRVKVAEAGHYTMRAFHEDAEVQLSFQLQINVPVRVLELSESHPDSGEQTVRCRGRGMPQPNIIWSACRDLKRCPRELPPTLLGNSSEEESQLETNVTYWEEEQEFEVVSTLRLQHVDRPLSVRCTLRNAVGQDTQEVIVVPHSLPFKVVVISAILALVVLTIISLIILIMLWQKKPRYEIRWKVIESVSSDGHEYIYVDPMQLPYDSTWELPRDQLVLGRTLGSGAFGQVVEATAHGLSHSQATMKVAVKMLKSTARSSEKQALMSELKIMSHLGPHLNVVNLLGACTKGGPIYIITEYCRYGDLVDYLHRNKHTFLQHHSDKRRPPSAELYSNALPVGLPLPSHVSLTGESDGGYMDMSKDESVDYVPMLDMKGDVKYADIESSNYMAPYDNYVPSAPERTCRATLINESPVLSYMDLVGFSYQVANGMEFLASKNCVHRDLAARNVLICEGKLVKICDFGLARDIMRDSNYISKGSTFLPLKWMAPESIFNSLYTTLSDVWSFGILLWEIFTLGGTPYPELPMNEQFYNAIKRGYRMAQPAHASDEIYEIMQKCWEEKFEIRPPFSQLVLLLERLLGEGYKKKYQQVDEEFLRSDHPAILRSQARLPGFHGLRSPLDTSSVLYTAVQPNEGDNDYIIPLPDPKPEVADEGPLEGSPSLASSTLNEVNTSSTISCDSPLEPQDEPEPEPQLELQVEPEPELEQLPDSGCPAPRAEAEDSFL

## N#CC(=Cc1ccc2[nH]ccc2c1)C(N)=C(C#N)C#N [AG-370, 2-Amino-4-(1H-indol-5-yl)-1,1,3-tricyanobuta-1,3-diene]
[1]
  IC50: 20 µM
[2]
  IC50: 820 µM

## C[N+](C)(C)CCOC(N)=O [Cch, carbachol]
[3]
  effect on beating frequency: opposite, negative effect

## N#CC(C#N)=Cc1ccc(O)c(O)c1 [AG18, [(3,4-Dihydroxyphenyl)methylene]-propenedinitrile]
[1]
  IC50: 25 µM

## NC(=O)c1ccc(-c2nc(-c3ccc4c(c3)OCCO4)c(-c3ccccn3)[nH]2)cc1 [D 4476, 4-[4-(2,3-Dihydro-1,4-benzodioxin-6-yl)-5-(2-pyridinyl)-1H-imidazol-2-yl]benzamide]
SAPK2/p38
  selectivity over SAPK2/p38: greater than 20 fold

## Cc1[nH]c(C=C2C(=O)Nc3ccccc32)c(C)c1CCC(=O)O [SU 6668]
[4]
  IC50: 0.06 µM

## CC(C)NCC(O)c1ccc(O)c(O)c1 (centres unmarked) [isoproterenol]
[3]
  effect on beating frequency: significantly increased

## N#C/C(=C\c1ccc(O)c(O)c1)C(N)=O [Tyrphostin 46]
[1]
  IC50: 50 µM

## Cc1ccc(-n2sc3ccccc3c2=O)cc1 [PBIT, 2-(4-methylphenyl)-1,2-benzisothiazol-3(2H)-one]
[5]; 10 μM PBIT as a substitute for AS8351
  electrophysiological features: exhibited CM-like electrophysiological features
[5]; 10 μM PBIT as a substitute for AS8351, day 30
  expression of cardiac proteins: expressed a broad panel of cardiac proteins

## CCCC(=O)[O-].[Na+] [sodium butyrate (NaB), sodium butyrate]
[6]; pretreatment in combination with SMER28
  induction efficiency of HADFs: further increased the induction efficiency of HADFs

## COc1cc2ncc(-c3ccccc3)nc2cc1OC [AG-1296, 6,7-Dimethoxy-3-phenylquinoxaline]
[1]
  IC50: 1 µM

## Cc1cc(Nc2ncc3c(n2)N(C)C(=O)N(c2cc(NC(=O)c4cccc(C(F)(F)F)c4)ccc2C)C3)n(C)n1 [SC1, N-(3-(7-(1,3-dimethyl-1H-pyrazol-5-ylamino)-1-methyl-2-oxo-1,2-dihydropyrimido[4,5-d]pyrimidin-3(4H)-yl)-4-methylphenyl)-3-(trifluoromethyl)benzamide]
RasGAP
  Kd: 0.098 µM
ERK1
  Kd: 0.212 µM

## C=CCNc1ncnc2ccc(Br)cc12 [SMER28]
[6]; [7]
  generation of beating cardiac clusters from HADFs: enabled the generation of beating cardiac clusters
  proliferation of HADFs: increased the proliferation of HADFs

## CC(C)(C)c1cc(C=C(C#N)C#N)cc(C(C)(C)C)c1O [Tyrphostin 9]
[1]
  IC50: 1.2 µM
